Source: US8240312B2, “Method and means for exerting a phototoxic effect of visible light on microorganisms” (Osnat Feuerstein, priority 2004, dated 2012)

Columns and labels:
P. gingivalis = assay: Bacterial survival after 20 sec blue light exposure in the presence of scavengers; assay type: cell-based, Porphyromonas gingivalis; conditions: P. gingivalis in PBS suspension, halogen lamp, 23 J/cm^2, scavengers 30 to 100 μM, relative to non-exposed control (FIG. 5C)
Experimental: (§1) Bacteria: P. gingivalis, F. nucleatum, S. mutans, S. faecalis, P. gingivalis and F. nucleatum were grown and incubated at 37° C. in an anaerobic jar at <1% O2 and 9-13% CO2. S. mutans and S. faecalis were grown and incubated under aerobic conditions at 37° C. All the strains were sub-cultured twice before exposure to light. The bacterial concentration following 24 h incubation was standardized by dilution with sterile broth to about 5×10^6 cfu.
(§2) Determination of bacterial survival: Following exposure of the bacteria in suspension to light, samples were diluted and applied to the agar plates. Survival of these bacteria were determined, as well as of the duplicates of single bacteria on agar, by counting cfu following incubation. P. gingivalis and F. nucleatum were cultured under anaerobic conditions and S. mutans and S. faecalis under aerobic conditions at 37° C. until bacterial colonies were visible (1-5 days). The percentage of surviving bacteria was calculated in relation to the control non-exposed samples under similar experimental conditions. Biofilm inhibition in the triplicates bacterial lawn samples was defined as a halo without colony growth appearing in the light-exposed areas. All experiments in which the results of the exposed samples differed from those of the control were repeated at least twice. […]

F. nucleatum = assay: as above; assay type: cell-based, Fusobacterium nucleatum; conditions: F. nucleatum in PBS suspension, halogen lamp, 23 J/cm^2, scavengers 30 to 100 μM, relative to non-exposed control (FIG. 5D)
Experimental: as §1, §2

Structure (SMILES): CNC(=S)NC [DMTU, dimethylthiourea]
- percent survival of bacteria (P. gingivalis): 48%
- percent survival of bacteria (F. nucleatum): 63%
